{
  "source": "patent US20060134217A1",
  "about": "“Leukotriene and integrin inhibitor combination and treatment method” (priority 2004, published 2006)",
  "key": {"[1]": {"description": "The pharmaceutical dosage forms may also be formulated to provide a chronobiological synergy of the two compounds."}, "[2]": {"biological_target": "α4/β1 to vascular cell adhesion molecule (VCAM-1) (Homo sapiens, UniProt P05556+P13612)", "sequence (P05556 21-798, one chain of several)": "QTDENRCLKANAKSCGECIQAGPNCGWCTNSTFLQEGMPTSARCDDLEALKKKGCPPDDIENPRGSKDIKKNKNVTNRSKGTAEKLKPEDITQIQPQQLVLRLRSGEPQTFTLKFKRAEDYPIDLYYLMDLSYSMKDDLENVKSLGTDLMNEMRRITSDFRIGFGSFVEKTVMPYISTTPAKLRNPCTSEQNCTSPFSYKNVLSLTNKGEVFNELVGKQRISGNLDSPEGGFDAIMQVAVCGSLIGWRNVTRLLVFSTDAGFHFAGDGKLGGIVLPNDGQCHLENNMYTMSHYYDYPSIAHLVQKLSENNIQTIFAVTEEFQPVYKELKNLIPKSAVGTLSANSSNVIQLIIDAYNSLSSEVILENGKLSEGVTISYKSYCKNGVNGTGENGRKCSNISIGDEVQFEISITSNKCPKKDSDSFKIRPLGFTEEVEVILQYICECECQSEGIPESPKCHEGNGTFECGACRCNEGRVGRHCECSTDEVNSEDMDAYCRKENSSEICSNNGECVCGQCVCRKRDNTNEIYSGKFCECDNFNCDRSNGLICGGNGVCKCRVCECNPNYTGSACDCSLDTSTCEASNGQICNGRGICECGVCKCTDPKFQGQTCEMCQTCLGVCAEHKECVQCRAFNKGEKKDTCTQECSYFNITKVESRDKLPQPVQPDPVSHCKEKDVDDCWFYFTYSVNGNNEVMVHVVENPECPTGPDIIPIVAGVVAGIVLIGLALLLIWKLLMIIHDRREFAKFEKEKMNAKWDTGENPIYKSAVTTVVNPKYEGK", "assay": "Inhibition of α4/β1 binding to VCAM-1", "description": "(§1) R411 inhibits the binding of α4/β1 to vascular cell adhesion molecule (VCAM-1) and α4/β7 to MadCAM-1 by […]. R411 is disclosed in U.S. Pat. No. 6,229,011, which disclosure is incorporated by reference herein."}, "atopic primate": {"test_system": "atopic primate", "assay": "Airway inflammation in the atopic primate, oral R411", "assay_type": "in vivo", "conditions": "oral administration, FIG. 6"}, "α4/β7 to MadCAM-1": {"biological_target": "T1, α4/β7 to MadCAM-1 (Homo sapiens, UniProt P13612+P26010)", "T1 sequence (P13612 34-1032)": "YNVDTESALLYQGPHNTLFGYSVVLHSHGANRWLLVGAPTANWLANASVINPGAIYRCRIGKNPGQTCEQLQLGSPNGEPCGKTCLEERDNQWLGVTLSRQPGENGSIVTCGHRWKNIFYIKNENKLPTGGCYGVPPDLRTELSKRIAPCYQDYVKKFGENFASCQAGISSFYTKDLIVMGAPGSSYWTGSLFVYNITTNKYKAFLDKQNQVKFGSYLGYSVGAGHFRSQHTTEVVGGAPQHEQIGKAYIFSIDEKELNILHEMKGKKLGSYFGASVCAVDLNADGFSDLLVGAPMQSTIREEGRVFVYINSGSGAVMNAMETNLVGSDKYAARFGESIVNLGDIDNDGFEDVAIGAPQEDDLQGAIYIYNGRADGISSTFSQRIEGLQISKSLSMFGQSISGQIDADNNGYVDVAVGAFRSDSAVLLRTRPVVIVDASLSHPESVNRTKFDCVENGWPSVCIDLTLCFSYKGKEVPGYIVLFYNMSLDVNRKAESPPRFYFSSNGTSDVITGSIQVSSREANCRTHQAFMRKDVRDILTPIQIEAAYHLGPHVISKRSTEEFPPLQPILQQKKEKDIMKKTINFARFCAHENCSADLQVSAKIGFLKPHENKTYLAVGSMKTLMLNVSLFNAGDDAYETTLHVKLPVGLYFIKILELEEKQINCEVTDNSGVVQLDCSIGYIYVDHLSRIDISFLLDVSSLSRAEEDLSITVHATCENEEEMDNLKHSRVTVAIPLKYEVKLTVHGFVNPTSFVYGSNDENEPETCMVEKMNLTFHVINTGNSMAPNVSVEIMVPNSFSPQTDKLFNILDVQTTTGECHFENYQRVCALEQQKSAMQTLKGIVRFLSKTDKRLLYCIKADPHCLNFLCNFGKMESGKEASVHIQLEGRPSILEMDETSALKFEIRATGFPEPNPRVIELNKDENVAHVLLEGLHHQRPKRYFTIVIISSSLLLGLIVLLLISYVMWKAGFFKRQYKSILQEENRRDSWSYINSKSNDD", "T1 sequence (P26010 20-798)": "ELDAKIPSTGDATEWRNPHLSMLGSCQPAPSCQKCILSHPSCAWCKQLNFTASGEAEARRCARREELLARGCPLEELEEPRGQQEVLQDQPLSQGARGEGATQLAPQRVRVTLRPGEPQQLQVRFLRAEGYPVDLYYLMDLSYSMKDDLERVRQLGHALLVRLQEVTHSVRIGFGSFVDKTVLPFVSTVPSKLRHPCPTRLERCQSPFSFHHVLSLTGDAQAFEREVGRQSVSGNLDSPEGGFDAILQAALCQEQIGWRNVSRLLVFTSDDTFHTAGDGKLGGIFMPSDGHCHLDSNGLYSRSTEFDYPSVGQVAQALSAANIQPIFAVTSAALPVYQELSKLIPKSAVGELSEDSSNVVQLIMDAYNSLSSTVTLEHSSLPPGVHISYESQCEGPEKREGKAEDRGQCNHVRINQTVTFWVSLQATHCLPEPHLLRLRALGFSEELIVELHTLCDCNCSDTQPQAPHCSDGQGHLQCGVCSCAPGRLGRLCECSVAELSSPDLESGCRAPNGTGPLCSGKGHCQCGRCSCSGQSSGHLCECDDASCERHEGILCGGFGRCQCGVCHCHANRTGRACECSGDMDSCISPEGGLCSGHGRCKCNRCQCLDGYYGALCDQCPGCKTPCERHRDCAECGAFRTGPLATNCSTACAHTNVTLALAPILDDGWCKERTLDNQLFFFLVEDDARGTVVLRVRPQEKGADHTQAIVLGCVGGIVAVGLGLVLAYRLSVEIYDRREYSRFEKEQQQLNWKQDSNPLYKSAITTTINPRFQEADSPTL", "assay": "Inhibition of α4/β7 binding to MadCAM-1", "description": "as §1"}, "key inflammatory cells": {"test_system": "key inflammatory cells", "assay": "Migration of inflammatory cells from blood into lungs", "conditions": "in vivo"}, "α4": {"biological_target": "T2, α4 (Homo sapiens, UniProt P13612)", "T2 sequence (P13612 34-1032)": "T1 sequence (P13612 34-1032)", "assay": "In vitro binding to α4 integrin"}, "[3]": {"test_system": "α4/β1 and α4/β7 integrins", "assay": "Integrin selectivity"}, "[4]": {"test_system": "persistent asthmatics on low to medium inhaled corticosteroids", "assay": "Phase II add-on of R411 to inhaled corticosteroids (MARS study)", "assay_type": "in vivo, human", "conditions": "added to moderate dose inhaled corticosteroids, subpopulation with less well controlled asthma", "description": "As set out above, a second component in the solid pharmaceutical dosage form comprises a therapeutically effective amount of R411 (N-(2-chloro-6-methylbenzoyl)-4-[(2,6-dichlorobenzoyl)amino]-L-phenylalanine-2-(diethylamino)ethyl ester), or a pharmaceutically acceptable salt thereof. […] The MARS study illustrated in FIG. 3 was designed to evaluate the safety and efficacy of R411 over a 12 week treatment period in 350 persistent asthmatics being treated with a stable dose of low to medium inhaled corticosteroids and inhaled short acting […]. Patients were randomized to one of five cohorts: 50, 200, 600 mg once daily (QD) or 300 mg twice daily (BID) R411, or placebo (n=70/group). After a 2-week placebo run-in period and subsequent 2-week add-on period (R411 or placebo), morning inhaled corticosteroids were removed. Two weeks later, evening inhaled corticosteroids were removed, and patients remained in the treatment period for an additional 8 weeks. The primary endpoint in the study was the percentage change in FEV1 from baseline, and secondary endpoint included PEFR, asthma exacerbations, β2-agonist use, asthma control questionnaire, asthma symptom scores, nocturnal awakenings, FEF25-75 and rate of asthma treatment failures."}, "[5]": {"test_system": "mild/moderate asthmatics not treated with inhaled corticosteroids", "assay": "ARES study: R411 monotherapy, 12 week treatment period", "assay_type": "in vivo, human", "conditions": "for % Asthma exacerbation / Asthma control Questionnaire (Total Score), change from baseline / Morning asthma symptoms, change from baseline / Nocturnal awakenings (scores), change from baseline / Rescue β 2-agonist use (puffs/d), change from baseline: 12 weeks, ITT population", "experimental": "The ARES study illustrated in FIG. 4 was designed to evaluate the safety and efficacy of monotherapy R411 over a 12 week treatment period in 480 mild/moderate asthmatics not treated with inhaled corticosteroids. Patients were randomized to one of four cohorts: 50, 200, 600 mg QD R411, or placebo (n=120/group). The primary endpoint in the study was change in FEV1 from baseline, and secondary endpoints included PEFR, asthma exacerbations, β2-agonist use, asthma control questionnaire, asthma symptom scores, and nocturnal awakenings.\nARES study evaluated the safety and efficacy of monotherapy with R411 over a 12-week treatment period in 479 mild/moderate asthmatics not treated with inhaled corticosteroids. Patients were randomized to one of four cohorts: 50, 200, 600 mg once daily R411, or placebo."}, "[6]": {"test_system": "mild and moderate asthmatics", "conditions": "cited from earlier work"}, "[7]": {"test_system": "stable asthmatic adults maintained on inhaled corticosteroids", "conditions": "cited from earlier work"}, "[8]": {"conditions": "50, 200, 600 mg once daily vs placebo"}},
  "note": "Marks after values point to notes of the source that are not given here.",
  "data": [
    {"smiles": "CCN(CC)CCOC(=O)[C@H](Cc1ccc(NC(=O)c2c(Cl)cccc2Cl)cc1)NC(=O)c1c(C)cccc1Cl", "note": "[R411, N-(2-Chloro-6-methylbenzoyl)-4-[(2,6-dichlorobenzoyl)amino]-L-phenylalanine-2-(diethylamino)ethyl ester]", "values": [
      {"measurement": "acid/base character", "setting": "[1]", "result": "weak base"},
      {"measurement": "solubility along the gastrointestinal tract", "setting": "[1]", "result": "higher solubility in the upper part of the gastrointestinal tract"},
      {"measurement": "inhibition of binding of α4/β1 to VCAM-1", "setting": "[2]", "result": "inhibits"},
      {"measurement": "airway inflammation", "setting": "atopic primate", "result": "attenuates airway inflammation"},
      {"measurement": "inhibition of binding of α4/β7 to MadCAM-1", "setting": "α4/β7 to MadCAM-1", "result": "inhibits"},
      {"measurement": "migration of key inflammatory cells from the blood into the lungs", "setting": "key inflammatory cells", "result": "block the migration"},
      {"measurement": "binding affinity", "setting": "α4; activated α4", "result": "high affinity"},
      {"measurement": "dissociation", "setting": "α4; activated α4", "result": "slow dissociation"},
      {"measurement": "dissociation", "setting": "α4; receptor not activated", "result": "more rapid"},
      {"measurement": "in vitro binding affinity", "setting": "α4; receptor not activated", "result": "lower"},
      {"measurement": "integrin selectivity", "setting": "[3]", "result": "effective against both α4/β1 and α4/β7 integrins"},
      {"measurement": "large airway flow rates as measured by FEV1", "setting": "[4]; FIG. 2", "result": "additive effect"},
      {"measurement": "small airway flow rates measured by FEF25-75", "setting": "[4]; FIG. 3", "result": "additive effect"},
      {"measurement": "% Asthma exacerbation", "setting": "[5]; 200 mg once daily", "result": 25.6, "unit": "%"},
      {"measurement": "Asthma control Questionnaire (Total Score), change from baseline", "setting": "[5]; 200 mg once daily", "result": "−0.29 [2.08]"},
      {"measurement": "Morning asthma symptoms, change from baseline", "setting": "[5]; 200 mg once daily", "result": "−0.34* [1.55]"},
      {"measurement": "Nocturnal awakenings (scores), change from baseline", "setting": "[5]; 200 mg once daily", "result": "−0.15*/[0.61] scores"},
      {"measurement": "Rescue β 2-agonist use (puffs/d), change from baseline", "setting": "[5]; 200 mg once daily", "result": "−0.36/[3.04] puffs/d"},
      {"measurement": "% Asthma exacerbation", "setting": "[5]; 600 mg once daily", "result": 26.10, "unit": "%"},
      {"measurement": "Asthma control Questionnaire (Total Score), change from baseline", "setting": "[5]; 600 mg once daily", "result": "−0.23 [2.00]"},
      {"measurement": "Morning asthma symptoms, change from baseline", "setting": "[5]; 600 mg once daily", "result": "−0.33* [1.57]"},
      {"measurement": "Nocturnal awakenings (scores), change from baseline", "setting": "[5]; 600 mg once daily", "result": "−0.12*/[0.58] scores"},
      {"measurement": "Rescue β 2-agonist use (puffs/d), change from baseline", "setting": "[5]; 600 mg once daily", "result": "−0.41*/[3.11] puffs/d"},
      {"measurement": "decrease in daytime asthma and nocturnal symptom score", "setting": "[5]; [8]", "result": "Statistically significant improvements"},
      {"measurement": "reducing rescue albuterol use", "setting": "[5]; [8]", "result": "Statistically significant improvements"},
      {"measurement": "Asthma Control Questionnaire Scores and Asthma Quality-of-Life", "setting": "[5]; compared to placebo", "result": "Improvement"},
      {"measurement": "small airway flow rates as measured by FEF25-75", "setting": "[5]; monotherapy, FIG. 4", "result": "significant effect"},
      {"measurement": "reduction in asthma exacerbations", "setting": "[5]; two highest doses of 200 and 600 mg", "result": 26, "unit": "%"}
    ]},
    {"smiles": "CC(C)(O)c1ccccc1CC[C@@H](SCC1(CC(=O)[O-])CC1)c1cccc(/C=C/c2ccc3ccc(Cl)cc3n2)c1.[Na+]", "note": "[montelukast, [R-(E)]-1-[[[1-[3-[2-(7-chloro-2-quinolinyl)ethenyl]phenyl]-3-[2-(1-hydroxy-1-methylethyl)phenyl]propyl]thio]methyl]cyclopropaneacetic acid, monosodium salt]", "values": [
      {"measurement": "reduction of \"as-needed\" (beta)-agonist use from baseline", "setting": "[6]; adult patients, placebo 4.6%", "result": 26.1, "unit": "%"},
      {"measurement": "reduction of nocturnal awakenings from baseline", "setting": "[6]; patients with nocturnal awakenings of at least 2 nights per week, combined analysis, placebo 15%", "result": 34, "unit": "%"},
      {"measurement": "reduction in mean inhaled corticosteroid dose", "setting": "[7]; 12-week active treatment period, placebo 30%", "result": 47, "unit": "%"},
      {"measurement": "patients successfully tapered off inhaled corticosteroids", "setting": "[7]; at conclusion of study, placebo 29%, p=NS", "result": "Approximately 40%"}
    ]}
  ]
}
